Experimental data: patent US20110195910A1, “USE OF TOCOTRIENOL COMPOSITION FOR THE PREVENTION OF CANCER” (DAVOS LIFE SCIENCE PTE. LTD., priority 2008, published 2011)

Assays:
G361 cells = assay: Western blotting of epithelial/mesenchymal markers, G361 cells; type: cell-based; conditions: G361, 24 hrs
Procedure: 1.1.5 Western blotting—Detailed protocols have been described previously and are known in the art. Briefly, cell lysates were prepared by suspending cell pellets in lysis buffer [50 mmol/l Tris-HCl (pH 8.0), 150 mmol/l NaCl, 1% NP40, 0.5% deoxycholate, 0.1% SDS, 1 mg/ml aprotinin, 1 μg/ml leupeptin and 1 mmol/l phenylmethylsulfonyl fluoride]. For nuclear protein extraction, NucBuster™ protein extraction kit was used. Protein concentration was measured using the DC Protein Assay kit (Bio-Rad, Hercules, Calif.). Equal amount of protein (30 μg) was loaded onto a 10% SDS polyacrylamide gel for electrophoresis and then transferred onto a polyvinylidene difluoride membrane (Amersham, Piscataway, N.J.). The membrane was then incubated with primary antibodies for 1 hr at room temperature against E-cadherin (BD Biosciences, Bedford, Mass.), α-catenin, β-catenin, γ-catenin, Id-1, Id-3, EGFR, phosphor-c-jun, phosphor-ATF2, cleaved PARP, vimentin, α-smooth muscle actin, twist (Santa Cruz Biotechnology, Calif.), phosphor-IkB-alpha (Ser32/36), phosphor-IKK alpha (Seri 80)/IKK beta (Ser181), phosphor-SAPK/JNK (Thr183/Tyr185) G9, SAPK/JNK, NF-kB p65 (5A5) (Cell Signaling Technology Inc, Beverly, Mass.), Snail (Abcam). […] Expression of β-actin and histone H1 were assessed as an internal loading control for total cell lysate and nuclear protein lysate respectively.

[1] = test system: bladder cancer cell line MGH-U1; assay: Spheroid formation assay, MGH-U1 cells; type: cell-based
Procedure: 5.1.7 Spheroid formation assay—Spheroid formation assay was performed with a protocol modified from previous study (Folkins C, p3560). Briefly, cells were first trypsinized, washed with 1× PBS and resuspended in DMEM F12 medium. Two hundred cells were added into each well of a 24-well-plate pre-coated with polyHEMA (Sigma, St. Louis, Mo.). Cells will be grown in DMEM/F12 mem (Invitrogen, Carlsbad, Calif.) supplemented with 4 μg/mL insulin (Sigma, St. Louis, Mo.), B27 (Invitrogen, Carlsbad, Calif.), 20 ng/mL EGF (Sigma, St. Louis, Mo.), and 20 ng/mL basic FGF (Invitrogen, Carlsbad, Calif.). Fresh medium with the above supplements was added every day. γ-T3 was added at indicated time points and the number of spheroids was counted at day 14 of the assay or at the end of the treatment. Each experiment was repeated in triplicates and each data point represented the mean and standard derivation.

[2] = Serum-based toxicity assay; type: in vivo, C57BL/6 black mice; conditions: 5 dose i.p. injections per week containing 1 mg
Procedure: 4.1.8 Serum-based toxicity assay—Ten C57BL/6 black mice were given 5 dose intraperitoneal (i.p) injections per week containing 1 mg of γ-tocotrienol or DMSO blank. Mice were sacrificed by cardiac bleeding and the serum was extracted by method described above. Serum level of the biomarkers albumin, creatine, alanine transaminase ALT, aspartate aminotransferase AST, urea and alkaline phosphatase ALP were then measured by the colorimetric-based detection kits purchased from RANDOX laboratories Ltd. (Crumlin, United Kingdom).

[3] = test system: PCa tumors (PC-3-Luc xenograft); assay: Immunohistochemistry of xenograft tumor tissues; set-up: species or system BALB/c athymic nude mice; conditions: mouse, in vivo
Procedure: 4.1.9 Immunohistochemistry—Tumor, liver, kidney, spleen, lung and heart of mice were fixed in 10% neutral buffered formalin for 12 h. After fixation, the tissue samples were processed into paraffin blocks. Tissue sections were cut at a thickness of 5 using Kedee microtome (China JINHUA Kedi Co., Ltd, Zhejiang, China), then deparaffinized in toluene and rehydrated from graded of alcohols to distilled water. Endogenous peroxidase activity was blocked by treating the sections with 0.6% hydrogen peroxide in methanol for 20 min, followed by antigen retrieval treatment. (Dako, Glostrup, Denmark). The sections were then incubated with peroxidase blocking solution (Dako, Glostrup, Denmark) for 1 h at 37° C. to remove any nonspecific antigens. The specimens were incubated overnight at 4° C. with primary rabbit polyclonal antibody against Snail (1:200), Id1 (1:250) (Abcam, Cambridge, UK), cleaved caspase-3 and cleaved PARP (1:50; Cell Signalling Technology, Inc., Beverly, Mass., USA) and mouse monoclonal antibody against proliferating cell nuclear antigen (PCNA), Ki-67, E-cadherin (1:50; Santa Cruz Biotechnology, Santa Cruz, Calif., USA). After several rinse in TBS, the sections were incubated with Dako REALT EnVisionT/HRP, Rabbit/Mouse solution for 1 h at 37° C. The reaction was visualized by Dako REALT DAB^+ chromogen. Mayer's haematoxylin (Dako, Glostrup, Denmark) was used as counter stain. Standard inverted light microscopy (Nikon, Tokyo, Japan) was used to analyze the slides.

**Q.** With `CC(C)=CCC/C(C)=C/CC/C(C)=C/CCC1(C)CCc2cc(O)c(C)c(C)c2O1` (centres unmarked) [γ-T3, 7,8-dimethyltocotrienol] as the molecule, how does the “E-cadherin and γ-catenin protein expression” value (G361 cells) read?
**A.** Its value is “up-regulated”.

**Q.** What about the “Snail and mesenchymal markers (vimentin, α-SMA and twist) expression” value (G361 cells) of the same molecule?
**A.** Its value is “down-regulated”.

**Q.** What about the “inhibition in spheroid formation” value [1] of the same molecule?
**A.** Its value is 100%.

**Q.** What about the “toxicological changes in serum parameters (Alb, Cre, ALT, AST, Ure, ALP)” value [2] of the same molecule?
**A.** The value was “no toxicological changes”.

**Q.** And the “E-cadherin expression in tumor sections” value [3]?
**A.** The value was “up-regulated”.

**Q.** What about the “Snail expression in tumor sections” value [3] of the same molecule?
**A.** The value was “down-regulated”.

**Q.** What about the “level of PCNA, Ki67 and Id-1 in tumors” value [3] of the same molecule?
**A.** Its value is “downregulated”.

**Q.** And the “level of cleaved caspase 3 and PARP in tumors” value [3]?
**A.** The value was “induced”.
